# Test results as given in patent US20040102485A1, “Tartrate salt of thiazolidinedione derivative” (priority 2003, published 2004).
# Assay: Solid state stability of the Meso-Tartrate (storage in glass bottle, HPLC assay for final content and degradation products)
# Type: physicochemical
# Conditions: 1 month
# Description: Solid State Stability of the Meso-Tartrate, recorded for the product of Example 1 The solid state stability of the drug substance was determined by storing approximately 1.0 g of the material in a glass bottle at i) 40° C./75% Relative Humidity (RH), open exposure, for 1 month and b) at 50° C., closed, for 1 month. The material was assayed by HPLC for final content and degradation products in both cases.
# [1] = 40° C./75% Relative Humidity (RH), open exposure
smiles,measurement,setting,value
"CN(CCOc1ccc(CC2SC(=O)NC2=O)cc1)c1ccccn1.O=C(O)C(O)C(O)C(=O)O (stereo not drawn) [Example 1, 5-[4-[2-(N-methyl-N-(2-pyridyl)amino)ethoxy]benzyl]thiazolidine-2,4-dione Meso-Tartrate]",HPLC assay (final content),[1],97 % initial
same,"degradation (HPLC, degradation products)",[1],No significant degradation observed
same,HPLC assay (final content),"50° C., closed",98 % initial
same,"degradation (HPLC, degradation products)","50° C., closed",No significant degradation observed
